In PubChem BioAssay (NCI):
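Assay format: 96-well plates, 48-hour exposure. TGI: total growth inhibition.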

What was measured:
Assay in all cases: NCI-60 cell line screen, 48 h
786-0 renal = tested on: 786-0 renal
A498 renal = tested on: A498 renal
A549 NSCLC = tested on: A549 NSCLC
BT-549 breast = tested on: BT-549 breast
CAKI-1 renal = tested on: CAKI-1 renal
CCRF-CEM leukemia = tested on: CCRF-CEM leukemia
COLO 205 colon = tested on: COLO 205 colon
DU-145 prostate = tested on: DU-145 prostate
EKVX NSCLC = tested on: EKVX NSCLC
HCC-2998 colon = tested on: HCC-2998 colon
HCT-116 colon = tested on: HCT-116 colon
HCT-15 colon = tested on: HCT-15 colon
HL-60(TB) leukemia = tested on: HL-60(TB) leukemia
HOP-62 NSCLC = tested on: HOP-62 NSCLC
HS 578T breast = tested on: HS 578T breast
HT29 colon = tested on: HT29 colon
IGROV1 ovarian = tested on: IGROV1 ovarian
K-562 leukemia = tested on: K-562 leukemia
KM12 colon = tested on: KM12 colon
M14 melanoma = tested on: M14 melanoma
MCF7 breast = tested on: MCF7 breast
MDA-MB-231 breast = tested on: MDA-MB-231 breast
MDA-MB-435 = tested on: MDA-MB-435
MOLT-4 leukemia = tested on: MOLT-4 leukemia
NCI-H226 lung = tested on: NCI-H226 lung
NCI-H23 lung = tested on: NCI-H23 lung
NCI-H460 lung = tested on: NCI-H460 lung
NCI-H522 lung = tested on: NCI-H522 lung
NCI/ADR-RES ovarian = tested on: NCI/ADR-RES ovarian
OVCAR-3 ovarian = tested on: OVCAR-3 ovarian
OVCAR-4 ovarian = tested on: OVCAR-4 ovarian
OVCAR-5 ovarian = tested on: OVCAR-5 ovarian
OVCAR-8 ovarian = tested on: OVCAR-8 ovarian
PC-3 prostate = tested on: PC-3 prostate
RPMI-8226 leukemia = tested on: RPMI-8226 leukemia
RXF 393 renal = tested on: RXF 393 renal
SF-268 CNS = tested on: SF-268 CNS
SF-295 CNS = tested on: SF-295 CNS
SF-539 CNS = tested on: SF-539 CNS
SK-MEL-2 melanoma = tested on: SK-MEL-2 melanoma
SK-MEL-28 melanoma = tested on: SK-MEL-28 melanoma
SK-MEL-5 melanoma = tested on: SK-MEL-5 melanoma
SK-OV-3 ovarian = tested on: SK-OV-3 ovarian
SN12C renal = tested on: SN12C renal
SNB-19 CNS = tested on: SNB-19 CNS
SNB-75 CNS = tested on: SNB-75 CNS
SR leukemia = tested on: SR leukemia
SW-620 colon = tested on: SW-620 colon
T-47D breast = tested on: T-47D breast
U251 CNS = tested on: U251 CNS
UACC-62 melanoma = tested on: UACC-62 melanoma
UO-31 renal = tested on: UO-31 renal

Measured: TGI

Cc1ccc(OCC2OC(C#N)C(Oc3ccc(C)cc3)C2Oc2ccc(C)cc2)cc1 (configuration not stated)
> 100 µM: all assays above
